Results: patent US11632963B2, “Tuber storage” (Arysta Lifescience Benelux Sprl, priority 2014, dated 2023)

How the values were obtained:
[1] = tested on: Potatoes from the variety Bintje, Innovator and Nicola; test: Fresh sprout weight of stored potatoes treated by fogging (Example 7); type: in vivo, Solanum tuberosum; conditions: Treatment at 50 ml/ton, corresponding to 450 g limonene/ton or 450 ppm
Method: Potatoes were treated with 100% orange oil every 3 weeks via application by cold fogging using a potato mist blower VEUGEN in the above part of a storage cell between bag fillings and the top of the cell.
Potatoes from the variety Bintje, Innovator and Nicola were stored in a storage room and each storage room (trail number) was treated with a different product in the anti-sprouting treatment. BIO-024 stands for Orange oil, with at least 900 g limonene/1, BIOX M is a trade name of a mint oil based product that is commercially available as an anti-sprouting agent, Gro Stop fog is a trade name of a CIPC containing product for the treatment of sprouting of potatoes.
An overview of the fresh sprout weight and the weight loss of samples that were taken on 11 February, 11 March, 8 April and 6 May is given in Table 6. […] Storage was carried out from 11 October until 16 May the year after, all products were applied by fogging.
Fresh sprout weight was assessed by weighing all sprouts per sample. Sprout weight was calculated for a standard sized sample of 1.0 kg potatoes: Fresh sprout weight(g)=fresh sprout weight sample/(weight sample unloading−sprouts)

[2] = tested on: potatoes (Bintje and Innovator); test: Tuber treatment in cabins, sprout formation (Example 2); type: in vivo, Solanum tuberosum; conditions: 600 EC limonene composition, 90 ml/1000 kg then 30 or 90 ml/1000 kg every 3 weeks, fogging
Method: In a second example, use of a 600 EC limonene composition according to example 1 the treatment of potatoes is illustrated.
In this example, 10 equal amounts of potatoes (20 kg Bintje and 20 kg Innovator) were treated in 5 different cabins. The first cabin acted as a control. No treating agent was applied in the first cabin.
In cabin 4, a composition according to example 1 was used, with limonene as active ingredient. The first application was done 2 weeks after harvesting at a concentration of 90 ml/1000 kg potatoes. After this application, the next applications were at a dose of 30 ml/1000 kg potatoes.
In cabin 5, the same composition as used in cabin 4 was used with 600 g/l limonene as active ingredient. The first application was done 2 weeks after harvesting at a concentration of 90 ml/1000 kg potatoes. Every 3 weeks the application was repeated at the same dose.
For all the cabins, the first treatment was on 22 October, 2 weeks after harvest. The potatoes were investigated for sprout formation at February 5, the next year, March 4, and April, 4. For each amount of potatoes the weight loss was determined, the sprout index was determined and the sprout weight was measured.
The sprout weight expressed in grams of the “Innovator”-variety potatoes is depicted in FIG. 3 for each cabin and at the 3 different times, corresponding to around 4, 5 and 6 months after harvest.

potatoes [3] = conditions: WO 92/10934, cited from earlier work
potatoes [4] = conditions: 45 g/ton at start and 15 g/ton every 20 days, after 5 months, WO 00/32063, cited from earlier work

C=C(C)[C@H]1CC=C(C)CC1 [limonene]
effectiveness to reach the levels of control obtainable by CIPC or mint oil [1]: not sufficiently effective | effectiveness as treatment agent on its own (sprout formation) [2]: sufficient effectiveness | influence on potato sprouting (potatoes [3]; headspace concentration of 1.70 mg/L after 7 days): did not have an influence on potato sprouting | eyes with sprouts (potatoes [3]; three unsprouted potatoes exposed to a 2 ml limonene soaked filter paper in a desiccator flask): 0% | weight loss (potatoes [4]; 60 wt % limonene composition, untreated control 5.4%): 4.5% | sprout growth (potatoes [4]; limonene as 60 wt % composition, untreated control 100%): 96.8%
